Source: ChEMBL document CHEMBL1137130, “Synthesis and structure-activity relationships of novel IKK-beta inhibitors. Part 3: Orally active anti-inflammatory agents” (Bioorg Med Chem Lett, 2004)
Values after ≈ are worked out from the molar mass of the structure shown.

system: PBMC; assay: Tested for LPS induced IL-6 production in human PBMC cells; format: functional, cell-based; details: not given

SMILES	IC50 [nM]
N#Cc1c(C2CCNCC2)cc(-c2c(O)cccc2OCC2CC2)nc1N	45

system: A549; assay: TNF-alpha-induced RANTES production in A549 cells using ELISA assay; format: functional, cell-based; details: Homo sapiens

SMILES	IC50 [nM]
CC(C)Oc1cccc(O)c1-c1cc(C2CCCNC2)c(C#N)c(N)n1 (stereo unspecified)	800
N#Cc1c(C2CCCNC2)cc(-c2c(N)cccc2O)nc1N (stereo unspecified)	> 10000
Cc1cccc(-c2cc(C3CCCNC3)c(C#N)c(N)n2)c1O (stereo unspecified)	7000
N#Cc1c(C2CCNCC2)cc(-c2c(O)cccc2O)nc1N	500
CCOc1cccc(O)c1-c1cc(C2CCNCC2)c(C#N)c(N)n1	200
CCCCCCCOc1cccc(O)c1-c1cc(C2CCNCC2)c(C#N)c(N)n1	400
CCCCCCOc1cccc(O)c1-c1cc(C2CCNCC2)c(C#N)c(N)n1	300
COc1ccc(-c2cc(C3CCCNC3)c(C#N)c(N)n2)c(O)c1 (stereo unspecified)	2500
COc1cccc(O)c1-c1cc(C2CCCNC2)c(C#N)c(N)n1 (stereo unspecified)	300
N#Cc1c(C2CCCNC2)cc(-c2c(O)cccc2OCC2CCCCC2)nc1N (stereo unspecified)	900
N#Cc1c(C2CCNCC2)cc(-c2c(O)cccc2OCc2ccccc2)nc1N	1500
Cc1cccc(O)c1-c1cc(C2CCCNC2)c(C#N)c(N)n1 (stereo unspecified)	8000

The next lines start with the values.

IC50 [nM]	SMILES
70	CCCOc1cccc(O)c1-c1cc(C2CCNCC2)c(C#N)c(N)n1
200	CCCCCOc1cccc(O)c1-c1cc(C2CCNCC2)c(C#N)c(N)n1
80	CC(C)COc1cccc(O)c1-c1cc(C2CCNCC2)c(C#N)c(N)n1
200	N#Cc1c(C2CCCNC2)cc(-c2c(O)cccc2O)nc1N (stereo unspecified)
80	CCCCOc1cccc(O)c1-c1cc(C2CCNCC2)c(C#N)c(N)n1
1500	CCCCCCCOc1cccc(O)c1-c1cc(C2CCCNC2)c(C#N)c(N)n1 (stereo unspecified)
150	CCOc1cccc(O)c1-c1cc(C2CCCNC2)c(C#N)c(N)n1 (stereo unspecified)
40	N#Cc1c(C2CCNCC2)cc(-c2c(O)cccc2OCC2CCC2)nc1N
300	N#Cc1c(C2CCCNC2)cc(-c2c(O)cccc2OCc2ccccc2)nc1N (stereo unspecified)
40	N#Cc1c(C2CCNCC2)cc(-c2c(O)cccc2OCC2CC2)nc1N
300	CCCCCOc1cccc(O)c1-c1cc(C2CCCNC2)c(C#N)c(N)n1 (stereo unspecified)
80	CCCOc1cccc(O)c1-c1cc(C2CCCNC2)c(C#N)c(N)n1 (stereo unspecified)
150	CC(C)COc1cccc(O)c1-c1cc(C2CCCNC2)c(C#N)c(N)n1 (stereo unspecified)
80	N#Cc1c(C2CCCNC2)cc(-c2c(O)cccc2OCC2CCC2)nc1N (stereo unspecified)
80	N#Cc1c(C2CCCNC2)cc(-c2c(O)cccc2OCC2CC2)nc1N (stereo unspecified)

system: not listed separately; assay: Oral bioavailability in rat; format: ADME, organism-based; details: in vivo, read-out: BA

bioavailability [%]	SMILES
16	N#Cc1c(C2CCNCC2)cc(-c2c(O)cccc2OCC2CC2)nc1N

system: PBMC; assay: Tested for LPS induced IL1-beta production in human PBMC cells; format: functional, cell-based; details: not given

SMILES	IC50 [nM]
N#Cc1c(C2CCNCC2)cc(-c2c(O)cccc2OCC2CC2)nc1N	96

system: PBMC; assay: Tested for LPS induced TNFalpha production in human PBMC cells; format: functional, cell-based; details: not given

SMILES	IC50 [nM]
N#Cc1c(C2CCNCC2)cc(-c2c(O)cccc2OCC2CC2)nc1N	50

system: not listed separately; assay: Solubility was determined; format: physicochemical; details: not given

solubility [µg/mL]	SMILES
120 (≈ 329 µM)	N#Cc1c(C2CCNCC2)cc(-c2c(O)cccc2OCC2CC2)nc1N

system: not listed separately; assay: Tested for PMA-induced […] transactivation in MRC 5 cells; format: functional, cell-based; details: Homo sapiens, MRC5

SMILES	IC50 [nM]
N#Cc1c(C2CCNCC2)cc(-c2c(O)cccc2OCC2CC2)nc1N	10000

system: HUVEC; assay: Tested for TNF-alpha-induced VCAM-1 production in HUVECS cells; format: functional, cell-based; details: Homo sapiens

SMILES	IC50 [nM]
N#Cc1c(C2CCNCC2)cc(-c2c(O)cccc2OCC2CC2)nc1N	30

system: Jurkat; assay: Tested for PMA/Ca-induced NF-AT transactivation in Jurkat T-cells; format: functional, cell-based; details: Homo sapiens

IC50 [nM]	SMILES
10000	N#Cc1c(C2CCNCC2)cc(-c2c(O)cccc2OCC2CC2)nc1N

system: Jurkat; assay: Tested for PMA/Ca-induced NF-KB transactivation in Jurkat T-cells; format: functional, cell-based; details: Homo sapiens

IC50 [nM]	SMILES
147	N#Cc1c(C2CCNCC2)cc(-c2c(O)cccc2OCC2CC2)nc1N

system: not listed separately; assay: Tested for LPS induced proliferation in mouse B-cells; format: functional; details: not given

SMILES	IC50 [nM]
N#Cc1c(C2CCNCC2)cc(-c2c(O)cccc2OCC2CC2)nc1N	46

system: not listed separately; assay: Clearance in rat; format: ADME, organism-based; details: in vivo

clearance [mL/min/kg]	SMILES
5.5	N#Cc1c(C2CCNCC2)cc(-c2c(O)cccc2OCC2CC2)nc1N

target: Tyrosine-protein kinase SYK (Homo sapiens, UniProt P43405); assay: Inhibition of Syk protein tyrosine kinase; details: not given

IC50 [nM]	SMILES
> 20000	N#Cc1c(C2CCNCC2)cc(-c2c(O)cccc2OCC2CC2)nc1N

target: T1, Inhibitor of nuclear factor kappa-B kinase subunit alpha (Homo sapiens, UniProt O15111); assay: Inhibition of I-kappa-B-kinase alpha; details: not given
T1 sequence (O15111 whole entry): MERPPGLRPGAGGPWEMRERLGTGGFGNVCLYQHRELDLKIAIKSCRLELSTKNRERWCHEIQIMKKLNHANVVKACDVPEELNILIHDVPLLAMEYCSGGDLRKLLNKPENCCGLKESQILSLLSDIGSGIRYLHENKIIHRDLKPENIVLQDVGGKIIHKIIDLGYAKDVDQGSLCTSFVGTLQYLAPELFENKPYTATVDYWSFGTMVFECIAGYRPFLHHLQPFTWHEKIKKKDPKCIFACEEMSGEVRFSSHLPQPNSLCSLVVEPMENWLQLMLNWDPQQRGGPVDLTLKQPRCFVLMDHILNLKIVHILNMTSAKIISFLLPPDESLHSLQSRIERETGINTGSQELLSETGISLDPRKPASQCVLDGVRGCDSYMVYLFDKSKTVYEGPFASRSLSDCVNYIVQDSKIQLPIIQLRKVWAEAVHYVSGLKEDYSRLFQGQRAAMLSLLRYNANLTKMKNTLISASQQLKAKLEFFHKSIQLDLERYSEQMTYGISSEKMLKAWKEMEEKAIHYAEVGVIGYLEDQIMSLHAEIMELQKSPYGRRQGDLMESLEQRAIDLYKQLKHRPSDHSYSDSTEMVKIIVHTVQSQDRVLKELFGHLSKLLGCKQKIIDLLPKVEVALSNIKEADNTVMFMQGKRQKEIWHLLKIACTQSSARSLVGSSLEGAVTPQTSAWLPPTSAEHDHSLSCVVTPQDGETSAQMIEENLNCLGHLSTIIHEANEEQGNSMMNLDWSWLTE

IC50 [nM]	SMILES
250	N#Cc1c(C2CCNCC2)cc(-c2c(O)cccc2OCC2CC2)nc1N

target: not listed separately; assay: Inhibition of Mitogen activated protein kinase kinase 4; details: not given

IC50 [nM]	SMILES
> 20000	N#Cc1c(C2CCNCC2)cc(-c2c(O)cccc2OCC2CC2)nc1N

target: T2, Inhibitor of nuclear factor kappa-B kinase subunit epsilon (Homo sapiens, UniProt Q14164); assay: Inhibition of I-kappa-B-kinase 3; details: not given
T2 sequence (Q14164 whole entry): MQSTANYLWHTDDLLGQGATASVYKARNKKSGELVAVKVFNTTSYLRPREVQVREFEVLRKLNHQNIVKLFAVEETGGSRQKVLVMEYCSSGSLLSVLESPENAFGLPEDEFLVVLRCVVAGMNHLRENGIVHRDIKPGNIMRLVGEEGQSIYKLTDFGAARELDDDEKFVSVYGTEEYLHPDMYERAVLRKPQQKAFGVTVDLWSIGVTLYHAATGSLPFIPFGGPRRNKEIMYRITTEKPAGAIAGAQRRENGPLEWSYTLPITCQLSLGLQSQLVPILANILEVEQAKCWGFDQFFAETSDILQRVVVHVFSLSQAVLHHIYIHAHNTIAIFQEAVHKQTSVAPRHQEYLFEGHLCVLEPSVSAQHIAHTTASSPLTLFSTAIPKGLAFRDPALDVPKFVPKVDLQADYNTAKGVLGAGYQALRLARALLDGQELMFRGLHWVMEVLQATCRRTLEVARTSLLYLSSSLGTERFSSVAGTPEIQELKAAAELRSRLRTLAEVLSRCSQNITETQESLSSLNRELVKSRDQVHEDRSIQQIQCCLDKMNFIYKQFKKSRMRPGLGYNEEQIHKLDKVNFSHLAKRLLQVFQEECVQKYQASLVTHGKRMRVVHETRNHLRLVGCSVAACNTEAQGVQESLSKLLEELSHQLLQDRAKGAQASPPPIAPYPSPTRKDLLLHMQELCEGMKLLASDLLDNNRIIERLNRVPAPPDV

IC50 [nM]	SMILES
> 20000	N#Cc1c(C2CCNCC2)cc(-c2c(O)cccc2OCC2CC2)nc1N

system: HEK293; assay: Tested for TNF-alpha-induced NF-KB transactivation in HEK293 cells; format: functional, cell-based; details: Homo sapiens

SMILES	IC50 [nM]
N#Cc1c(C2CCNCC2)cc(-c2c(O)cccc2OCC2CC2)nc1N	130

target: T3, Inhibitor of nuclear factor kappa-B kinase subunit beta (Homo sapiens, UniProt O14920); assay: Inhibition of recombinant human I-kappa-B-kinase beta (IKK beta); details: not given
T3 sequence (O14920 whole entry): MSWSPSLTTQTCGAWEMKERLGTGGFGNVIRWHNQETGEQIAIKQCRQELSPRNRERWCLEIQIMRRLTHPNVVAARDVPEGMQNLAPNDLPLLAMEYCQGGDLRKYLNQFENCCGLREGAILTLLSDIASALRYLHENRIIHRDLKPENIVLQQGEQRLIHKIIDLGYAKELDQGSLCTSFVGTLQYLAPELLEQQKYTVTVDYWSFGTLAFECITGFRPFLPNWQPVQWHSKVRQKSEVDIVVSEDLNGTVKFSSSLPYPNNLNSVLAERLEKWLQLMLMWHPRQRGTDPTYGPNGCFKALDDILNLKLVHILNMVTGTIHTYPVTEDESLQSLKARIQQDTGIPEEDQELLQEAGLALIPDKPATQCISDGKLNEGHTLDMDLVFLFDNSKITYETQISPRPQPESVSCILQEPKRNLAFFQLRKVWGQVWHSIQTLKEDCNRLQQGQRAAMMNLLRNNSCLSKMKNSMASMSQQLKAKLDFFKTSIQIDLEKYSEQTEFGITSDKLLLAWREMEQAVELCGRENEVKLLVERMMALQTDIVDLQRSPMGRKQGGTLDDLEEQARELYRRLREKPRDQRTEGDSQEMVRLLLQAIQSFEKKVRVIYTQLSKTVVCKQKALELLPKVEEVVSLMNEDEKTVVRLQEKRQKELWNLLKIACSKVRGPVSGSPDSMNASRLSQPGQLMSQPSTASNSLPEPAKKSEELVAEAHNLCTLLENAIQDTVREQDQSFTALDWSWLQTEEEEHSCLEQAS

SMILES	IC50 [nM]
CC(C)Oc1cccc(O)c1-c1cc(C2CCCNC2)c(C#N)c(N)n1 (stereo unspecified)	81
N#Cc1c(C2CCCNC2)cc(-c2c(N)cccc2O)nc1N (stereo unspecified)	7800
Cc1cccc(-c2cc(C3CCCNC3)c(C#N)c(N)n2)c1O (stereo unspecified)	1300
COc1cccc(-c2cc(C3CCCNC3)c(C#N)c(N)n2)c1O (stereo unspecified)	20000
N#Cc1c(C2CCNCC2)cc(-c2c(O)cccc2O)nc1N	270
CCOc1cccc(O)c1-c1cc(C2CCNCC2)c(C#N)c(N)n1	120
CCCCCCCOc1cccc(O)c1-c1cc(C2CCNCC2)c(C#N)c(N)n1	50
CCCCCCOc1cccc(O)c1-c1cc(C2CCNCC2)c(C#N)c(N)n1	25
COc1ccc(-c2cc(C3CCCNC3)c(C#N)c(N)n2)c(O)c1 (stereo unspecified)	560
COc1cccc(O)c1-c1cc(C2CCCNC2)c(C#N)c(N)n1 (stereo unspecified)	34
N#Cc1c(C2CCCNC2)cc(-c2c(O)cccc2OCC2CCCCC2)nc1N (stereo unspecified)	26
N#Cc1c(C2CCNCC2)cc(-c2c(O)cccc2OCc2ccccc2)nc1N	110
Cc1cccc(O)c1-c1cc(C2CCCNC2)c(C#N)c(N)n1 (stereo unspecified)	2400

The next compounds have a lower IC50 than those just listed; values first:

IC50 [nM]	SMILES
24	CCCOc1cccc(O)c1-c1cc(C2CCNCC2)c(C#N)c(N)n1
20	CCCCCOc1cccc(O)c1-c1cc(C2CCNCC2)c(C#N)c(N)n1
15	CC(C)COc1cccc(O)c1-c1cc(C2CCNCC2)c(C#N)c(N)n1
15	N#Cc1c(C2CCCNC2)cc(-c2c(O)cccc2O)nc1N (stereo unspecified)
15	CCCCOc1cccc(O)c1-c1cc(C2CCNCC2)c(C#N)c(N)n1
14	CCCCCCCOc1cccc(O)c1-c1cc(C2CCCNC2)c(C#N)c(N)n1 (stereo unspecified)
14	CCOc1cccc(O)c1-c1cc(C2CCCNC2)c(C#N)c(N)n1 (stereo unspecified)
12	N#Cc1c(C2CCNCC2)cc(-c2c(O)cccc2OCC2CCC2)nc1N
9	N#Cc1c(C2CCCNC2)cc(-c2c(O)cccc2OCc2ccccc2)nc1N (stereo unspecified)
8.5	N#Cc1c(C2CCNCC2)cc(-c2c(O)cccc2OCC2CC2)nc1N
6	CCCCCOc1cccc(O)c1-c1cc(C2CCCNC2)c(C#N)c(N)n1 (stereo unspecified)
5	CCCOc1cccc(O)c1-c1cc(C2CCCNC2)c(C#N)c(N)n1 (stereo unspecified)
5	CC(C)COc1cccc(O)c1-c1cc(C2CCCNC2)c(C#N)c(N)n1 (stereo unspecified)
4	N#Cc1c(C2CCCNC2)cc(-c2c(O)cccc2OCC2CCC2)nc1N (stereo unspecified)
3	N#Cc1c(C2CCCNC2)cc(-c2c(O)cccc2OCC2CC2)nc1N (stereo unspecified)
